Experiment [1] has as its system Hepatitis B virus. Description: Antiviral activity against Hepatitis B virus infected in human […] cells assessed as suppression of viral surface antigen production after 48 hrs by enzyme immunoassay. The class given is functional, organism-based.
The test system of a further experiment is A549. Description: Cytotoxicity against human A549 cells after 3 days by sulforhodamine B assay. The class given is functional, cell-based. Particulars: A549, 72 h; call rule not given here.
The next experiment has as its system MCF7. Kind of experiment: Cytotoxicity against human MCF7 cells after 3 days by sulforhodamine B assay. The class given is functional, cell-based. Particulars: MCF7, 72 h. A general note: The SRB assay estimates cell density from bound dye.
A further experiment deals with KB. Kind of experiment: Cytotoxicity against human KB cells after 3 days by sulforhodamine B assay. The class given is functional, cell-based. Particulars: 72 h.
Experiment [2] in a line: Cytotoxicity against human KBVIN cells after 3 days by sulforhodamine B assay. Particulars: 72 h. The class given is functional, cell-based.
The subject of experiment [3] is Hepatitis B virus. Kind of experiment: Antiviral activity against Hepatitis B virus infected in human […] cells assessed as suppression of viral surface antigen production upto 15 uM after 48 hrs by enzyme immunoassay. The experiment is classed as functional, organism-based.

Drawing on ChEMBL document CHEMBL1153512, “Anti-HBV and cytotoxic activities of pyranocoumarin derivatives” (Bioorg Med Chem, 2009), this text covers EC50 for 20 compounds.

Structures are written as SMILES. pEC50: −log10 of the molar value. Values after ≈ are worked out from the molar mass of the structure shown. Where only a bound is given, the exact number is not on record here.

For orientation: pEC50 means the EC50 on a negative log10 scale, so that one unit is a factor of ten. One may read the EC50 as the concentration needed to bring the measured effect to its halfway point. `CCC(C)(C)c1c2c(c(O)c3ccc(=O)oc13)C(=O)CC(C)(C)O2`: in the experiment on Hepatitis B virus [1], the pEC50 was 5.94. Moreover, the EC50 in the experiment on A549 was 19.7 µg/mL (≈ 59.7 µM); with MCF7 it was over 20 µg/mL; with KB, 19.5 µg/mL (≈ 59 µM); in experiment [2] it was 2.87 µg/mL (≈ 8.69 µM).

On to `CCC(C)(C)c1cc2c(OC)c3c(c(C(C)(C)CC)c2oc1=O)OC(C)(C)CC3`, for which the pEC50 in the experiment with Hepatitis B virus [1] is 5.18.

For the compound `C=CC(C)(C)c1cc2c(OC)c3c(c(C(C)(C)C=C)c2oc1=O)OC(C)(C)C=C3`, the EC50 entry in the experiment with Hepatitis B virus [3] is recorded as “Not Active”.

Regarding `COc1c2c(c(C(C)(C)C3CO3)c3oc(=O)ccc13)OC(C)(C)CC2=O` (stereo not given), the 50% effective concentration (EC50) result in the experiment on Hepatitis B virus [3] is reported as “Not Active”.

For `CCC(C)(C)c1c2c(c(OC)c3ccc(=O)oc13)CCC(C)(C)O2`, the pEC50 in the experiment with Hepatitis B virus [1] is 5.79. The EC50 in the experiment on A549 is over 20 µg/mL; with MCF7, over 20 µg/mL; in the experiment on KB, 11.5 µg/mL (≈ 34.9 µM); in experiment [2] it was 10.2 µg/mL (≈ 30.7 µM).

In the case of `CC1(C)CC(=O)c2c(c(C(C)(C)C3CO3)c3oc(=O)ccc3c2O)O1` (stereo not given), the EC50 result with Hepatitis B virus [3] is “Not Active”; in the experiment on A549, over 20 µg/mL; in the experiment with MCF7 it was over 20 µg/mL; in the experiment with KB, over 20 µg/mL; in experiment [2] it was 2.71 µg/mL (≈ 7.87 µM).

In the case of `COc1c2c(c(C(C)(C)C3CO3)c3oc(=O)c(C(C)(C)C4CO4)cc13)OC(C)(C)C1OC21` (stereo not given), in the experiment on Hepatitis B virus [3], the EC50 entry is “Not Active”.

For `CCC(C)(C)c1cc2c(O)c3c(c(C(C)(C)CC)c2oc1=O)OC(C)(C)CC3`, the EC50 result in the experiment with Hepatitis B virus [3] was “Not Active”; in the experiment with A549, 12.2 µg/mL (≈ 31.6 µM); with MCF7, 17.7 µg/mL (≈ 45.9 µM); with KB, 8.21 µg/mL (≈ 21.2 µM); in experiment [2] it was 7.73 µg/mL (≈ 20 µM).

As for `C=CC(C)(C)c1cc2c(OC)c3c(c(C(C)(C)C=C)c2oc1=O)OC(C)(C)C1OC31` (stereo not given), in the experiment on Hepatitis B virus [1], the pEC50 is 5.34. Further, the concentration for a half-maximal effect (EC50) in the experiment with A549 came to 11.8 µg/mL (≈ 28.7 µM); in the experiment on MCF7, 11.4 µg/mL (≈ 27.8 µM); with KB, 6.5 µg/mL (≈ 15.8 µM); in experiment [2] it was 6.12 µg/mL (≈ 14.9 µM).

`COc1c2c(cc3oc(=O)ccc13)OC(C)(C)CC2`: the 50% effective concentration (EC50) entry in the experiment on Hepatitis B virus [3] is “Not Active”.

Take `COc1c2c(c(C(C)(C)C3CO3)c3oc(=O)ccc13)OC(C)(C)C1OC21` (stereo not given): the EC50 entry with Hepatitis B virus [3] was “Not Active”.

Turning to `C=CC(C)(C)c1c2c(c(OC)c3ccc(=O)oc13)C1OC1C(C)(C)O2` (stereo not given), the pEC50 in the experiment on Hepatitis B virus [1] is 5.26.

In the case of `C=CC(C)(C)c1c2c(c(OC)c3ccc(=O)oc13)C(=O)CC(C)(C)O2`, the pEC50 with Hepatitis B virus [1] is 4.95.

Regarding `COc1c2c(cc3oc(=O)ccc13)OC(C)(C)C1OC21` (stereo not given), the EC50 entry in the experiment on Hepatitis B virus [3] is “Not Active”.

Take `CCC(C)(C)c1c2c(c(O)c3ccc(=O)oc13)CCC(C)(C)O2`: in the experiment on Hepatitis B virus [1], the pEC50 was 5.87. The EC50 in the experiment with A549 worked out at 8.84 µg/mL (≈ 27.9 µM); in the experiment with MCF7 it was 16.3 µg/mL (≈ 51.6 µM); with KB it was 9.25 µg/mL (≈ 29.2 µM); in experiment [2], 9.11 µg/mL (≈ 28.8 µM).

For `CCC(C)(C)c1c2c(c(OC)c3ccc(=O)oc13)C(=O)CC(C)(C)O2`, the pEC50 with Hepatitis B virus [1] was 5.27. Further, the EC50 with A549 is over 20 µg/mL; with MCF7, over 20 µg/mL; in the experiment with KB, over 20 µg/mL; in experiment [2], 13 µg/mL (≈ 37.9 µM).

With `C=CC(C)(C)c1cc2c(O)c3c(c(C(C)(C)C=C)c2oc1=O)OC(C)(C)C=C3` [CLAUSARIN], the EC50 entry in the experiment with Hepatitis B virus [3] was “Not Active”; in the experiment with A549 it was 2.98 µg/mL (≈ 7.83 µM); in the experiment with MCF7, 7.96 µg/mL (≈ 20.9 µM); in the experiment on KB, 1.61 µg/mL (≈ 4.23 µM); in experiment [2] it was 1.59 µg/mL (≈ 4.18 µM).

As to `C=CC(C)(C)c1c2c(c(OC)c3ccc(=O)oc13)C=CC(C)(C)O2` [DENTATIN], the pEC50 in the experiment with Hepatitis B virus [1] was 5.79. Also, the EC50 with A549 was over 20 µg/mL; in the experiment on MCF7, over 20 µg/mL; in the experiment on KB it was 13.3 µg/mL (≈ 40.6 µM); in experiment [2] it was 14.7 µg/mL (≈ 45.1 µM).

As for `C=CC(C)(C)c1c2c(c(O)c3ccc(=O)oc13)C=CC(C)(C)O2` [NORDENTATIN], the pEC50 in the experiment with Hepatitis B virus [1] is 5.20. The EC50 in the experiment on A549 stood at 8.7 µg/mL (≈ 27.9 µM); in the experiment on MCF7, 17.3 µg/mL (≈ 55.4 µM); in the experiment on KB, 9.63 µg/mL (≈ 30.8 µM); in experiment [2] it was 9.96 µg/mL (≈ 31.9 µM).

Consider `COc1c2c(cc3oc(=O)ccc13)OC(C)(C)C=C2` [XANTHOXYLETIN], for which the EC50 result in the experiment on Hepatitis B virus [3] is given as “Not Active”.
